{"source": "patent US10656089B2", "about": "“Systems, devices, and methods for time-resolved fluorescent spectroscopy” (Black Light Surgical, Inc., priority 2016, dated 2020)", "system": "NADH levels in ex vivo brain sample (cortex)", "assay": "continuous monitoring of NADH in an ex vivo brain sample by time-resolved fluorescence spectroscopy", "settings": "rabbit cortex ex vivo", "experimental": "Changes in NADH level were assessed to determine changes in the metabolic status of the brain sample in response to oxygen depletion, stimulation with neuro-protective drugs, and other stimuli. During ATP production in aerobic respiration conditions, NADH is oxidized to NAD+. In low oxygen conditions, for example, in areas of hypoxia or ischemia after a stroke, NADH accumulates in cells and persistent oxygen depletion can lead to cell death and breakdown of NADH. The different NADH states and levels may allow for the assessment of the viability and vulnerability of cells in an ischemic environment. Fluctuations in NADH levels were evaluated by measuring the fluorescence emission from NADH […]. […]\nThe system comprised a Q-switched ND:YaG laser (Teem Photonics PNVM02510) 1804 running at 1 KHz which emitted laser pulse at a wavelength of about 350 nm and a pulse width of about 400 ps full width half maximum (FWHM). […] The probe 1800 comprised a central 600 um fiber 1805 to deliver the excitation light surrounded by twelve 200 um fibers to collect the responsive fluorescence signal. […] One bundle of collection fibers 1806a was coupled to a spectrometer (Ocean Optics, Maya) which monitored the fluorescence spectrum every 100 ms. […]"}
{"smiles": "C=C(C)[C@H]1Cc2c(ccc3c2O[C@@H]2COc4cc(OC)c(OC)cc4[C@@H]2C3=O)O1", "note": "[rotenone]", "values": [{"measurement": "NADH levels (free and bound NADH fluorescence)", "setting": "50 nM rotenone added to Kreb-Ringer bath after about 30 minutes baseline", "value": "increased NADH levels"}, {"measurement": "NADH fluorescence detected", "setting": "additional rotenone doses of 1 uM and 50 uM added at 10 minute intervals", "value": "further increases in fluorescence detected"}]}
